Measurements from article PMC9331716, “Nucleoside Transport and Nucleobase Uptake Null Mutants in Leishmania mexicana for the Routine Expression and Characterization of Purine and Pyrimidine Transporters” (International Journal of Molecular Sciences, 2022).
Values joined by “and” are separate entries in the source; they are usually repeats but may differ in a detail not shown here. Equal values may be shown once.

How the values were obtained:
[1] = system: L. mexicana NT3-KO promastigotes; experiment: Radiolabel transport assay in NT3-KO cells; assay type: cell-based, Leishmania mexicana; conditions: for rate of uptake: NT3-KO cells; for upregulation of uptake rate in NT3-KO relative to cas9: adenosine and inosine at 100 nM, separate experiments listed singly
Experimental: (§1) Transport assays were performed exactly as described previously. Briefly, 10^7 cells in 100 μL of assay buffer (AB) were mixed with an equal volume of radiolabel at 2× concentration for a preset time. The incubation was terminated by the addition of 700 μL of “Stop solution”, being ice-cold 1 mM solution of unlabelled permeant, followed by immediate centrifugation through an oil layer in a microfuge at 13,000 rpm. This causes the cell pellet to reside under the oil layer and isolated from residual radiolabel in the assay buffer. The tubes were flash-frozen in liquid nitrogen and the bottom tip, containing the cell pellet, cut off and collected in a scintillation tube. Cells were solubilized by gentle shaking after addition of a 2% SDS solution, before the addition of scintillation fluid (Scintilogic U, Lablogic, Sheffield, UK); the tubes were left to stand in the dark overnight before counting in a 300SL Hidex Scintillation Counter (Lablogic). Linear and nonlinear regression analyses were carried out using GraphPad Prism versions 8.0 and higher. […] However, all parameters, including Km, Vmax, Ki, given are the average of at least three separate, independent determinations; errors given are standard errors, unless otherwise specified.

TcrNB2 [2] = target: T1, TcrNB2 (Trypanosoma cruzi, UniProt Q4DHG0); experiment: Transport assay, TcrNB2 expressed in LmexNT3-KO; assay type: cell-based
T1 sequence (Q4DHG0 1-440): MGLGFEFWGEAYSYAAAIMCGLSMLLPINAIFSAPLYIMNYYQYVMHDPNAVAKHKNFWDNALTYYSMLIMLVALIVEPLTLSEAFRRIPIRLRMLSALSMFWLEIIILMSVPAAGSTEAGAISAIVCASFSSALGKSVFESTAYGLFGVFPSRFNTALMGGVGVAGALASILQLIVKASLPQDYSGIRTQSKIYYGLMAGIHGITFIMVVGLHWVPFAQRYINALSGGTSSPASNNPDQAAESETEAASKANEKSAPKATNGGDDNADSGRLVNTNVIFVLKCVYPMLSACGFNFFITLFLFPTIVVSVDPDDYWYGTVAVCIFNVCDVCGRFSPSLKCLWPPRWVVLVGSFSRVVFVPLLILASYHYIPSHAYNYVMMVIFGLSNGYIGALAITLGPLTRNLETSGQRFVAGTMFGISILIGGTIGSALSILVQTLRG
Experimental: as §1

L. mexicana cas9 cells [3] = experiment: Radiolabel transport assay in cas9 cells; assay type: cell-based, Leishmania mexicana; conditions: cas9 cells
Experimental: as §1

L. mexicana cas9 cells [4] = experiment: Growth curve of cas9 cells with selection agents; assay type: cell-based, Leishmania mexicana; conditions: 5 μM tubercidin, 5 μg/mL blasticidin, 20 µg/mL puromycin, 1 µM formycin B
Experimental: The growth rates of the L. mexicana promastigotes were determined in the standard HOMEM medium supplemented with 10% FBS, in 12-well plates, in triplicate. After every 24 h, cells were counted in a sample of the culture, using either a Neubauer hemocytometer chamber (Hawksley, Birmingham, UK) or by a coulter particle counter and size analyzer (Beckman, Brea, CA, USA) to count the cells in triplicate. An average of the triplicate readings was taken and plotted using GraphPad Prism 8 software to obtain the growth curves.

TvagENT3 = TvagENT3 (Trichomonas vaginalis, UniProt A2E5Q3); experiment: cell-based; conditions: SUPKO expressing TvagENT3, 500 nM radiolabel
Experimental: as §1

[5] = system: L. mexicana SUPKO (ΔNT1.1/1.2/2) cells; experiment: Radiolabel transport assay in SUPKO cells; assay type: cell-based, Leishmania mexicana; conditions: for rate of uptake: SUPKO cells; for uptake reduced in SUPKO compared to cas9: 100 nM (0.1 µM) radiolabel
Experimental: as §1

L. mexicana NT2-KO cells = experiment: Radiolabel transport assay in NT2-KO cells; assay type: cell-based, Leishmania mexicana; conditions: for inhibition of residual [^3H]-guanosine uptake in NT2-KO: 250 µM inhibitor, 100 nM [^3H]-guanosine
Experimental: as §1

TcrNB2 [6] = target: T1, TcrNB2; experiment: Transport assay, TcrNB2 expressed in NT1-KO; assay type: cell-based; conditions: 50 nM [^3H]-adenosine, 100 nM [^3H]-hypoxanthine, 100 nM [^3H]-uracil; data not shown
Experimental: as §1

[7] = system: L. mexicana NT1-KO promastigotes; experiment: Resazurin (Alamar blue) drug sensitivity assay, NT1-KO line; assay type: cell-based, Leishmania mexicana
Experimental: The assay is based on the reduction of the dye resazurin (Alamar blue) by live but not dead cells and was performed with various strains of Leishmania mexicana promastigotes, exactly as described. Briefly, doubling dilutions starting at 100 µM were set up over 2 rows of a 96-well plate and 2 × 10^5 cells were added to each well, followed by incubation at 25 °C. After 72 h, 20 µL of 125 µg/mL resazurin solution was added and the plates incubated for a further 24 h. Fluorescence was determined in a FLUOstar OPTIMA plate reader (BMG Labtech, Ortenberg, Germany), reading the fluorescence intensity in arbitrary units (A.U.) at 544 nm wavelength for excitation and 620 nm wavelength for emission. The EC50 values and fluorescence data were determined and plotted to a sigmoid curve with variable slope, using the GraphPad Prism 8 software package. All EC50 values were determined on at least three independent occasions and are presented as average ± SEM.

[8] = substrate: Nc1ncnc2nc[nH]c12; experiment: Transport assay, TcrNB2 expressed in LmexNT3-KO; assay type: cell-based, Trypanosoma cruzi
Experimental: as §1

[9] = 100 nM radiolabel, listed as [^3H]-guanosine

Sequence of TvagENT3 (A2E5Q3 entry or part of it): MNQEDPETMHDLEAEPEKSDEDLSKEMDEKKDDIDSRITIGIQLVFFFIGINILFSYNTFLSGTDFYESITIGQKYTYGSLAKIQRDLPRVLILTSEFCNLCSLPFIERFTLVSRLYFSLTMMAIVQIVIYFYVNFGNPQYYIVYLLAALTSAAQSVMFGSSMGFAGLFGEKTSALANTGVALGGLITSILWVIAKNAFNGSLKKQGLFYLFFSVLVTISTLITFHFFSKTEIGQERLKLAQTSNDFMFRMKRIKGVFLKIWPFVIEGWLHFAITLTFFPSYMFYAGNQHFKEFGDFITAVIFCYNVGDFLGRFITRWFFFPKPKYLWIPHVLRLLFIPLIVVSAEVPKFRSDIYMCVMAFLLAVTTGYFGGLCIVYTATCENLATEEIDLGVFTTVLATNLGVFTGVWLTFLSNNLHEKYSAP

Nc1ncnc2[nH]cnc12 [adenine]
rate of transport in NT3-KO as % of that in cas9 ([1]; 100 nM radiolabel): < 1% | uptake in NT3-KO lower than in cas9 ([1]; 100 nM radiolabel, over 15 s): > 100 fold | rate of uptake ([1]; 100 nM radiolabel): 0.000207 ± 0.000094 pmol(10^7 cells)^−1s^−1 | rate of uptake (TcrNB2 [2]; NT3-KO expressing TcrNB2, 100 nM radiolabel): 0.00036 ± 0.00001 pmol(10^7 cells)^−1s^−1 | Vmax (TcrNB2 [2]; TcrNB2 in NT3-KO, n = 3): 0.26 ± 0.04 pmol(10^7 cells)^−1s^−1 | rate of uptake (L. mexicana cas9 cells [3]; 100 nM radiolabel): 0.0213 ± 0.0009 pmol(10^7 cells)^−1s^−1

CN(CC[C@H](N)CC(=O)N[C@H]1C=C[C@H](n2ccc(N)nc2=O)O[C@@H]1C(=O)O)C(=N)N [blasticidin]
sensitivity of cas9 cells in growth curve (L. mexicana cas9 cells [4]): confirmed

Nc1ccn([C@@H]2O[C@H](CO)[C@@H](O)[C@H]2O)c(=O)n1 [cytidine]
upregulation of uptake rate in NT3-KO relative to cas9 ([1]; listed as [^3H]-cytidine): 3.0 fold and 3.7 fold | rate of uptake (TvagENT3): 1.8 × 10^−4 ± 1.3 × 10^−5 pmol(10^7 cells)^−1s^−1 | rate of uptake ([5]; 500 nM radiolabel): 1.5 × 10^−5 ± 9 × 10^−6 pmol(10^7 cells)^−1s^−1

Nc1nc2c(ncn2[C@@H]2O[C@H](CO)[C@@H](O)[C@H]2O)c(=O)[nH]1 [guanosine]
upregulation of uptake rate in NT3-KO relative to cas9 [1]: 1.7 fold and 2.1 fold | uptake reduced in SUPKO compared to cas9 [5]: 95.5% | rate of uptake [5, 9]: 0.00046 ± 0.00011 pmol(10^7 cells)^−1s^−1 | rate of uptake (L. mexicana cas9 cells [3]; [9]): 0.010 ± 0.0006 pmol(10^7 cells)^−1s^−1 and 0.0058 ± 0.0003 pmol(10^7 cells)^−1s^−1 | rate of uptake lower in NT2-KO than in cas9 (L. mexicana NT2-KO cells; 100 nM radiolabel): 84.5% | inhibition of residual [^3H]-guanosine uptake in NT2-KO (L. mexicana NT2-KO cells): completely inhibited | rate of uptake (L. mexicana NT2-KO cells; NT2-KO cells, 100 nM radiolabel): 0.0009 ± 0.00014 pmol(10^7 cells)^−1s^−1

O=c1[nH]cnc2nc[nH]c12 [hypoxanthine]
uptake detected in NT3-KO cells ([1]; 100 nM radiolabel, p = 0.72): no significant hypoxanthine uptake was detected | rate of uptake ([1]; 100 nM radiolabel): 0.00019 ± 0.00045 pmol(10^7 cells)^−1s^−1 | effect of TcrNB2 expression on uptake in NT1-KO cells (TcrNB2 [6]): did not increase | inhibition at 1000 µM (TcrNB2 [2]; 1 mM inhibitor, TcrNB2 in NT3-KO, read-out: inhibition of adenine uptake): 31.1 ± 4.3% | rate of uptake ([5]; 100 nM radiolabel): 0.045 ± 0.004 pmol(10^7 cells)^−1s^−1 | inhibition of residual [^3H]-guanosine uptake in NT2-KO (L. mexicana NT2-KO cells): completely inhibited

N=C(N)c1ccc(OCCCCCOc2ccc(C(=N)N)cc2)cc1 [pentamidine]
EC50 (internal control) ([7]; NT1-KO compared with cas9): unchanged

COc1ccc(C[C@H](N)C(=O)N[C@H]2[C@@H](O)[C@H](n3cnc4c(N(C)C)ncnc43)O[C@@H]2CO)cc1 [puromycin]
sensitivity of cas9 cells in growth curve (L. mexicana cas9 cells [4]): confirmed

Cc1cn([C@H]2C[C@H](O)[C@@H](CO)O2)c(=O)[nH]c1=O [thymidine]
upregulation of uptake rate in NT3-KO relative to cas9 [1]: 3.45 fold | uptake reduced in SUPKO compared to cas9 [5]: 95.7 ± 1.8% | rate of uptake ([5]; 50 nM radiolabel): 8.7 × 10^−5 ± 1.2 × 10^−5 pmol(10^7 cells)^−1s^−1 | rate of uptake (L. mexicana cas9 cells [3]; 50 nM radiolabel): 0.0018 ± 0.0001 pmol(10^7 cells)^−1s^−1

Nc1ncnc2c1ccn2[C@@H]1O[C@H](CO)[C@@H](O)[C@H]1O [tubercidin]
sensitivity of cas9 cells in growth curve (L. mexicana cas9 cells [4]): confirmed | shift in tubercidin sensitivity ([7]; NT1-KO vs cas9, resazurin assay): 60 fold

B1: TcrNB2 (Trypanosoma cruzi strain CL Brener) (protein)
chain: T1 sequence (Q4DHG0 1-440)
Km ([8]; other: TcrNB2 in NT3-KO, 100 nM [^3H]-adenine, n = 3): 14.2 ± 2.6 µM | Km ([8]; other: one of three independent repeats, incubation time 120 s): 14.99 µM
